Measured values reported in US20240199542A1, “SUBSTITUTED PYRROLIDIN-2-ONES, SALTS THEREOF AND THEIR USE AS HERBICIDALLY ACTIVE SUBSTANCES” (Bayer Aktiengesellschaft, priority 2021, published 2024).

How the values were obtained:
Format in all cases: in vivo
[1] = system: Amaranthus retroflexus (AMARE); assay: Herbicidal post-emergence action; conditions: 1280 g/ha, assessed after ca. 3 weeks
Method in brief: (§1)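 Post-emergence greenhouse spray test: single-leaf plants treated with WP or EC formulations at 1280 g/ha or 320 g/ha in 600 l water/ha containing 0.5% additive. Activity is visual percent damage after roughly 3 weeks relative to untreated controls.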

[2] = system: Alopecurus myosuroides (ALOMY); assay: Herbicidal pre-emergence action; conditions: graded after ca. 3 weeks
Method in brief: (§2)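 Visual % damage versus untreated controls (100% = plants dead, 0% = like controls), scored ca. 3 weeks after treatment. Compounds (WP or EC) were sprayed onto the soil covering seeds sown in sandy loam, in water at 600 l/ha plus 0.5% additive, at 1280 g/ha or lower.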

[3] = system: Avena fatua (AVEFA); assay: Herbicidal pre-emergence action; conditions: graded after ca. 3 weeks
Method in brief: as §2

[4] = system: Cyperus esculentus (CYPES); assay: Herbicidal pre-emergence action; conditions: 1280 g/ha, graded after ca. 3 weeks
Method in brief: as §2

[5] = system: Digitaria sanguinalis (DIGSA); assay: Herbicidal pre-emergence action; conditions: 320 g/ha, graded after ca. 3 weeks
Method in brief: as §2

[6] = system: Echinochloa crus-galli (ECHCG); assay: Herbicidal pre-emergence action; conditions: 1280 g/ha, graded after ca. 3 weeks
Method in brief: as §2

[7] = system: Lolium multiflorum (LOLMU); assay: Herbicidal pre-emergence action; conditions: 1280 g/ha, graded after ca. 3 weeks
Method in brief: as §2

[8] = system: Lolium rigidum (LOLRI); assay: Herbicidal pre-emergence action; conditions: 320 g/ha, graded after ca. 3 weeks
Method in brief: as §2

[9] = system: Polygonum convolvulus (POLCO); assay: Herbicidal pre-emergence action; conditions: graded after ca. 3 weeks
Method in brief: as §2

[10] = system: Setaria viridis (SETVI); assay: Herbicidal pre-emergence action; conditions: graded after ca. 3 weeks
Method in brief: as §2

[11] = system: Veronica persica (VERPE); assay: Herbicidal pre-emergence action; conditions: 1280 g/ha, graded after ca. 3 weeks
Method in brief: as §2

[12] = system: Alopecurus myosuroides (ALOMY); assay: Herbicidal post-emergence action; conditions: 1280 g/ha, assessed after ca. 3 weeks
Method in brief: as §1

[13] = system: Avena fatua (AVEFA); assay: Herbicidal post-emergence action; conditions: 1280 g/ha, assessed after ca. 3 weeks
Method in brief: as §1

[14] = system: Digitaria sanguinalis (DIGSA); assay: Herbicidal post-emergence action; conditions: 320 g/ha, assessed after ca. 3 weeks
Method in brief: as §1

[15] = system: Echinochloa crus-galli (ECHCG); assay: Herbicidal post-emergence action; conditions: 1280 g/ha, assessed after ca. 3 weeks
Method in brief: as §1

[16] = system: Lolium multiflorum (LOLMU); assay: Herbicidal post-emergence action; conditions: 1280 g/ha, assessed after ca. 3 weeks
Method in brief: as §1

[17] = system: Lolium rigidum (LOLRI); assay: Herbicidal post-emergence action; conditions: 320 g/ha, assessed after ca. 3 weeks
Method in brief: as §1

[18] = system: Setaria viridis (SETVI); assay: Herbicidal post-emergence action; conditions: 1280 g/ha, assessed after ca. 3 weeks
Method in brief: as §1

[19] = system: Brassica napus (BRSNW); assay: Post-emergence effects on crop plants; conditions: application rate 320 g/ha, crop plant Brassica napus (BRSNW)
Excerpt: (§3) Seeds of mono- and dicotyledonous weed plants and crop plants were sown, in plastic or organic planting pots, in sandy loam, covered with soil and grown in a greenhouse under controlled growth conditions. 2 to 3 weeks after sowing, the test plants were sprayed in the single-leaf stage. The compounds according to the invention, formulated in form of wettable powders (WP) or as emulsifiable concentrates (EC), were sprayed onto the green plant parts as aqueous suspension or emulsion, with the addition of 0.5% of an additive, at an application rate of 600 1 of water/ha (converted). The test plants were placed in the greenhouse for ca. 3 weeks under optimum growth conditions, and then the effect of the preparations was assessed visually in comparison with untreated controls (herbicidal effect in percent (%): 100% effect=plants have died off, 0% effect=as control plants).
(§4) Tables D1 to D3 below show the effects of selected compounds of the general formula (I) according to table 1 on various crop plants and an application rate corresponding to 320 g/ha or below obtained by the experimental procedure mentioned above in biology section B.

[20] = system: Cyperus esculentus (CYPES); assay: Herbicidal post-emergence action; conditions: 1280 g/ha, assessed after ca. 3 weeks
Method in brief: as §1

[21] = system: Viola tricolor (VIOTR); assay: Herbicidal pre-emergence action; conditions: 320 g/ha, graded after ca. 3 weeks
Method in brief: as §2

[22] = system: Brassica napus (BRSNW); assay: Pre-emergence effects on crop plants; conditions: 320 g/ha, crop plant
Excerpt: (§5) Seeds of mono- and dicotyledonous weed plants and crop plants were sown, in plastic or organic planting pots, in sandy loam and covered with soil. The compounds according to the invention, formulated in the form of wettable powders (WP) or as emulsifiable concentrates (EC), were applied to the surface of the covering soil as aqueous suspension or emulsion, with the addition of 0.5% of an additive, at an application rate of 600 1 of water/ha (converted).
(§6) Following treatment, the pots were placed in a greenhouse and kept under optimum growth conditions for the test plants. The visual grading of the damage to the test plants was carried out after ca. 3 weeks in comparison to untreated controls (herbicidal effect in percent (%): 100% effect=plants have died off, 0% effect=as control plants).
(§7) Tables C1 to C3 below show the effects of selected compounds of the general formula (I) according to table 1 on various crop plants and an application rate corresponding to 320 g/ha or below obtained by the experimental procedure mentioned above in biology section A.

[23] = system: Glycine max (GLXMA); assay: Pre-emergence effects on crop plants; conditions: 80 g/ha, crop plant
Excerpt: as §5, §6, §7

[24] = system: Zea Mays (ZEAMX); assay: Pre-emergence effects on crop plants; conditions: 320 g/ha, crop plant
Excerpt: as §5, §6, §7

[25] = system: Glycine max (GLXMA); assay: Post-emergence effects on crop plants; conditions: 320 g/ha, crop plant
Excerpt: as §3, §4

[26] = system: Zea Mays (ZEAMX); assay: Post-emergence effects on crop plants; conditions: 320 g/ha, crop plant
Excerpt: as §3, §4

[27] = system: Polygonum convolvulus (POLCO); assay: Herbicidal post-emergence action; conditions: 1280 g/ha, assessed after ca. 3 weeks
Method in brief: as §1

[28] = system: Pharbitis purpurea (PHBPU); assay: Herbicidal pre-emergence action; conditions: 1280 g/ha, graded after ca. 3 weeks
Method in brief: as §2

[29] = system: Stellaria media (STEME); assay: Herbicidal post-emergence action; conditions: 1280 g/ha, assessed after ca. 3 weeks
Method in brief: as §1

Compound: O=C(CC1CCC(=O)N1Cc1cccc(F)c1F)NC1CCCc2ccccc21 (mixture of isomers) [Example I-066]
- Post-emergence activity against AMARE [1]: 100%

Compound: O=C(O)CC1CCC(=O)N1Cc1cccc(Cl)c1F (racemic) [Example I-001, 2-[1-[(3-chloro-2-fluorophenyl)methyl]-5-oxo-pyrrolidin-2-yl]acetic acid]
- Pre-emergence activity against ALOMY ([2]; 320 g/ha): 80%
- Pre-emergence activity against ALOMY ([2]; 1280 g/ha): 90%
- Pre-emergence activity against AVEFA ([3]; 320 g/ha): 100%
- Pre-emergence activity against AVEFA ([3]; 1280 g/ha): 100%
- Pre-emergence activity against CYPES [4]: 80%
- Pre-emergence activity against DIGSA [5]: 100%
- Pre-emergence activity against ECHCG [6]: 80%
- Pre-emergence activity against LOLMU [7]: 90%
- Pre-emergence activity against LOLRI [8]: 90%
- Pre-emergence activity against POLCO ([9]; 320 g/ha): 80%
- Pre-emergence activity against SETVI ([10]; 320 g/ha): 100%
- Pre-emergence activity against VERPE [11]: 90%
- Post-emergence activity against ALOMY [12]: 90%
- Post-emergence activity against AVEFA [13]: 90%
- Post-emergence activity against DIGSA [14]: 90%
- Post-emergence activity against ECHCG [15]: 90%
- Post-emergence activity against LOLMU [16]: 100%
- Post-emergence activity against LOLRI [17]: 80%
- Post-emergence activity against SETVI [18]: 80%
- post-emergence activity against BRSNW [19]: 0%

Compound: COCC(=O)CC(=O)CNC(=O)CC1CCC(=O)N1Cc1cccc(F)c1F (racemic) [Example I-006]
- Pre-emergence activity against ALOMY ([2]; 1280 g/ha): 90%
- Pre-emergence activity against AVEFA ([3]; 1280 g/ha): 100%
- Pre-emergence activity against CYPES [4]: 90%
- Pre-emergence activity against ECHCG [6]: 90%
- Pre-emergence activity against LOLMU [7]: 90%
- Pre-emergence activity against POLCO ([9]; 1280 g/ha): 90%
- Post-emergence activity against ALOMY [12]: 90%
- Post-emergence activity against AVEFA [13]: 100%
- Post-emergence activity against CYPES [20]: 80%
- Post-emergence activity against ECHCG [15]: 100%
- Post-emergence activity against LOLMU [16]: 80%
- Post-emergence activity against SETVI [18]: 80%

Compound: CS(=O)(=O)NC(=O)CC1CCC(=O)N1Cc1cccc(F)c1F (racemic) [Example I-012]
- Pre-emergence activity against ALOMY ([2]; 1280 g/ha): 90%
- Pre-emergence activity against AVEFA ([3]; 1280 g/ha): 90%
- Pre-emergence activity against CYPES [4]: 80%
- Pre-emergence activity against ECHCG [6]: 80%
- Pre-emergence activity against LOLMU [7]: 90%
- Pre-emergence activity against SETVI ([10]; 1280 g/ha): 90%
- Post-emergence activity against ALOMY [12]: 80%
- Post-emergence activity against AVEFA [13]: 90%
- Post-emergence activity against CYPES [20]: 80%
- Post-emergence activity against ECHCG [15]: 90%
- Post-emergence activity against LOLMU [16]: 90%
- Post-emergence activity against SETVI [18]: 90%

Compound: O=C(O)C1CCCN1C(=O)CC1CCC(=O)N1Cc1cccc(F)c1F (racemic) [Example I-013]
- Pre-emergence activity against ALOMY ([2]; 1280 g/ha): 90%
- Pre-emergence activity against AVEFA ([3]; 1280 g/ha): 100%
- Pre-emergence activity against DIGSA [5]: 90%
- Pre-emergence activity against ECHCG [6]: 90%
- Pre-emergence activity against LOLMU [7]: 90%
- Pre-emergence activity against LOLRI [8]: 80%
- Pre-emergence activity against POLCO ([9]; 1280 g/ha): 90%
- Pre-emergence activity against SETVI ([10]; 1280 g/ha): 90%
- Pre-emergence activity against VIOTR [21]: 90%
- Post-emergence activity against ALOMY [12]: 80%
- Post-emergence activity against AVEFA [13]: 80%
- Post-emergence activity against DIGSA [14]: 80%
- Post-emergence activity against ECHCG [15]: 80%
- pre-emergence activity against BRSNW (crop damage) [22]: 0%
- pre-emergence activity against GLXMA (crop damage) [23]: 0%
- pre-emergence activity against ZEAMX (crop damage) [24]: 0%
- post-emergence activity against BRSNW [19]: 0%
- post-emergence activity against GLXMA (crop damage) [25]: 0%
- post-emergence activity against ZEAMX (crop damage) [26]: 0%

Compound: C=CCOC(=O)CC1CCC(=O)N1Cc1cccc(F)c1F (racemic) [Example I-021]
- Pre-emergence activity against ALOMY ([2]; 1280 g/ha): 90%
- Pre-emergence activity against AVEFA ([3]; 1280 g/ha): 100%
- Pre-emergence activity against ECHCG [6]: 80%
- Pre-emergence activity against LOLMU [7]: 90%
- Pre-emergence activity against POLCO ([9]; 1280 g/ha): 80%
- Pre-emergence activity against SETVI ([10]; 1280 g/ha): 80%
- Post-emergence activity against ALOMY [12]: 80%
- Post-emergence activity against AVEFA [13]: 80%
- Post-emergence activity against CYPES [20]: 80%
- Post-emergence activity against ECHCG [15]: 90%
- Post-emergence activity against LOLMU [16]: 90%
- Post-emergence activity against POLCO [27]: 80%
- Post-emergence activity against SETVI [18]: 90%

Compound: CC(C)CNC(=O)CC1CCC(=O)N1Cc1cccc(F)c1F (racemic) [Example I-056]
- Pre-emergence activity against ALOMY ([2]; 1280 g/ha): 80%
- Pre-emergence activity against VERPE [11]: 100%
- Post-emergence activity against CYPES [20]: 80%

Compound: O=C(CC1CCC(=O)N1Cc1cccc(F)c1F)NCC(F)(F)F (racemic) [Example I-090]
- Pre-emergence activity against PHBPU [28]: 100%

Compound: CC1(C)CCC(=O)C(C(=O)CC2CCC(=O)N2Cc2cccc(F)c2F)C1=O (racemic) [Example I-178]
- Pre-emergence activity against ALOMY ([2]; 1280 g/ha): 90%
- Pre-emergence activity against AVEFA ([3]; 1280 g/ha): 90%
- Pre-emergence activity against ECHCG [6]: 90%
- Pre-emergence activity against PHBPU [28]: 90%
- Pre-emergence activity against POLCO ([9]; 1280 g/ha): 90%
- Post-emergence activity against AMARE [1]: 100%
- Post-emergence activity against AVEFA [13]: 80%
- Post-emergence activity against ECHCG [15]: 90%
- Post-emergence activity against STEME [29]: 80%

Compound: CC[C@H](C)[C@H](NC(=O)CC1CCC(=O)N1Cc1cccc(F)c1F)C(=O)O (single isomer, unassigned) [Example I-005]
- Pre-emergence activity against ALOMY ([2]; 1280 g/ha): 90%
- Pre-emergence activity against AVEFA ([3]; 1280 g/ha): 100%
- Pre-emergence activity against ECHCG [6]: 80%
- Pre-emergence activity against LOLMU [7]: 80%
- Pre-emergence activity against POLCO ([9]; 1280 g/ha): 80%
- Post-emergence activity against ALOMY [12]: 90%
- Post-emergence activity against AVEFA [13]: 90%
- Post-emergence activity against CYPES [20]: 90%
- Post-emergence activity against ECHCG [15]: 100%
- Post-emergence activity against LOLMU [16]: 90%
- Post-emergence activity against POLCO [27]: 80%
- Post-emergence activity against SETVI [18]: 90%
